{
  "source": "patent US20080009418A1",
  "about": "“Selective Inhibitors” (Alchemia LTD., priority 2004, published 2008)",
  "details_in_all_cases": "compound at 10 μM",
  "key": {"[1]": {"biological_target": "T1, Human melanin-concentrating hormone (MCH1) (Homo sapiens, UniProt Q99705)", "T1 construct": "purchased Perkin Elmer Biosignal", "T1 sequence (Q99705 whole entry)": "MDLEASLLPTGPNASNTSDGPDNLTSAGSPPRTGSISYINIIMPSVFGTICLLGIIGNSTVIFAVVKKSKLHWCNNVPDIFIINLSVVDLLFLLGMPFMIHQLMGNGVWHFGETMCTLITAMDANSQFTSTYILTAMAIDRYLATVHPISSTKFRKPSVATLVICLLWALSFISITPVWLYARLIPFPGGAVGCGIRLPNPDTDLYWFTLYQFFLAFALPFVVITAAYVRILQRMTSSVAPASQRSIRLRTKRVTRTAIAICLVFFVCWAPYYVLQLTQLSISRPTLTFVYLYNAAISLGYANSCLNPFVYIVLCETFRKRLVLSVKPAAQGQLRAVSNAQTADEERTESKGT", "experiment": "Radioligand binding, human melanin-concentrating hormone MCH1 membranes, FlashPlate, [125I]-S36057", "procedure,_shortened": "(§1)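 Cloned human receptor membranes were coated onto FlashPlate wells and incubated with radioligand and compound (added from a 0.5 mM DMSO daughter plate) for 1 hour at room temperature in the dark. Scintillation counting gave percent inhibition, with DMSO defining total and reference ligand defining non-specific binding.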"}, "Human neurokinin (NK1)": {"biological_target": "T2, Human neurokinin (NK1) (Homo sapiens, UniProt P25103)", "T2 construct": "purchased Perkin Elmer Biosignal", "T2 sequence (P25103 whole entry)": "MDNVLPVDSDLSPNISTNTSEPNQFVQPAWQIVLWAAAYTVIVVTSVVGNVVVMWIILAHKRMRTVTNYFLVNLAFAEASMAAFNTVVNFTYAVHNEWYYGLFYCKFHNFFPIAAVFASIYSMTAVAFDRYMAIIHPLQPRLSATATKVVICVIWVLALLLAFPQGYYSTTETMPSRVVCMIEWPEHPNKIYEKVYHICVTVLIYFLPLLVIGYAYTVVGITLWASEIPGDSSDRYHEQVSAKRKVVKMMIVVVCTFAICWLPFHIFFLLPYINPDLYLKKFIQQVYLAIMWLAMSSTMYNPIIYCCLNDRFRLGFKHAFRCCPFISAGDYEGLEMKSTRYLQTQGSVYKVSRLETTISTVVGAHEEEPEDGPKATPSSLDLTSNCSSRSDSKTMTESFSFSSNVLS", "experiment": "Radioligand binding, human neurokinin NK1 membranes, filtration, [125I]-Substance P", "procedure,_shortened": "(§2)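 Percent inhibition of radioligand binding measured on recombinant human membranes: NK1 with [125I]-Substance P, KOP with [3H]-Diprenorphine. Incubation 1 h at room temperature, then harvest onto 0.3% PEI-soaked filters, cold Tris-HCl pH 7.4 washes and scintillation counting; non-specific binding from reference ligand wells.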"}, "Human κ-Opioid (KOP)": {"biological_target": "T3, Human κ-Opioid (KOP) (Homo sapiens, UniProt P41145)", "T3 construct": "purchased Perkin Elmer Biosignal", "T3 sequence (P41145 whole entry)": "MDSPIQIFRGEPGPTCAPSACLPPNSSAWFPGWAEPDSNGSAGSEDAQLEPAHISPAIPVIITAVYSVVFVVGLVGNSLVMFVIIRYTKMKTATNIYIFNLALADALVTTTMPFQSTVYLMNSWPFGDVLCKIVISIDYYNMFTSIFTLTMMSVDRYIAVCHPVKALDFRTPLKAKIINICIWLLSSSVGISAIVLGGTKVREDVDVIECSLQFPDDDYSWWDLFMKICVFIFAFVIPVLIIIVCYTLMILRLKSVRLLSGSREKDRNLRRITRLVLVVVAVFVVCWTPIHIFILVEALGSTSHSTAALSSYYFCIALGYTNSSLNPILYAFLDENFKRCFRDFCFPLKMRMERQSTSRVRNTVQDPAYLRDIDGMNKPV", "experiment": "Radioligand binding, human κ-opioid (KOP) membranes, filtration, [3H]-Diprenorphine", "procedure,_shortened": "as §2"}, "Human μ-opioid (MOP)": {"biological_target": "T4, Human μ-opioid (MOP) (Homo sapiens, UniProt P35372)", "T4 construct": "purchased Perkin Elmer Biosignal", "T4 sequence (P35372 whole entry)": "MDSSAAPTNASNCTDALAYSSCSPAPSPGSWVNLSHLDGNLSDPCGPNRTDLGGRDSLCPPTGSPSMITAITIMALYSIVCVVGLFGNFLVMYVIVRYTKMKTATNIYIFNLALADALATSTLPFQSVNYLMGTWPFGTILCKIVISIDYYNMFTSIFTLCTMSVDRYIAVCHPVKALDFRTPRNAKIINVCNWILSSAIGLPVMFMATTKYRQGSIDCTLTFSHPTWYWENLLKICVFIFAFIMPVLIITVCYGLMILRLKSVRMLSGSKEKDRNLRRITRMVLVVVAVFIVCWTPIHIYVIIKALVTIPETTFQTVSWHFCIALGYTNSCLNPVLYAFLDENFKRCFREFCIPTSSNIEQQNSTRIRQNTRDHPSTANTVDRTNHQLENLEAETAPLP", "experiment": "Radioligand binding, human μ-opioid (MOP) membranes, FlashPlate, [3H]-Naloxone", "procedure,_shortened": "as §1"}, "Mouse urotensin (mUR2)": {"biological_target": "T5, Mouse urotensin (mUR2) (Mus musculus, UniProt Q8VIH9)", "T5 construct": "purchased Perkin Elmer Biosignal", "T5 sequence (Q8VIH9 1-385)": "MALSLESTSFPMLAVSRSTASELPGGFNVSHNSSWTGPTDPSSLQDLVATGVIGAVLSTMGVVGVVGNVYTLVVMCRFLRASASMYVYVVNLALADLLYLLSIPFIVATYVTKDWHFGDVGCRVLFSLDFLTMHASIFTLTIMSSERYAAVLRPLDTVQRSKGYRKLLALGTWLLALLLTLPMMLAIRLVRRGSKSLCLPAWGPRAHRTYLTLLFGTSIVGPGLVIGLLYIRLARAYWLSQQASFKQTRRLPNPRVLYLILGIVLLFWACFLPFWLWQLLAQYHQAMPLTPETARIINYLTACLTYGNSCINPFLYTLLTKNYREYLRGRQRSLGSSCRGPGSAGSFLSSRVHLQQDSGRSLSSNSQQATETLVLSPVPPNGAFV", "experiment": "Radioligand binding, mouse urotensin mUR2 membranes, FlashPlate, [125I]-Urotensin II", "procedure,_shortened": "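Cloned mouse urotensin (mUR2) receptor membranes from Perkin Elmer Biosignal were immobilized in FlashPlate microplates using a proprietary coating. Each well got 19.5 μl buffer, then 0.5 μl of DMSO, reference ligand, or compound. Adding 5 μl of [125I]-Urotensin II, diluted to 5× final concentration in binding buffer, started binding. Plates were sealed with TopSeal-A and incubated 1 hour at room temperature in the dark. Wells were counted for 30 seconds each on a TopCount after a 60-second delay, and percentage inhibition was calculated.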"}, "Human melanocortin (MC5)": {"biological_target": "T6, Human melanocortin (MC5) (Homo sapiens, UniProt P33032)", "T6 construct": "purchased Perkin Elmer Biosignal", "T6 sequence (P33032 whole entry)": "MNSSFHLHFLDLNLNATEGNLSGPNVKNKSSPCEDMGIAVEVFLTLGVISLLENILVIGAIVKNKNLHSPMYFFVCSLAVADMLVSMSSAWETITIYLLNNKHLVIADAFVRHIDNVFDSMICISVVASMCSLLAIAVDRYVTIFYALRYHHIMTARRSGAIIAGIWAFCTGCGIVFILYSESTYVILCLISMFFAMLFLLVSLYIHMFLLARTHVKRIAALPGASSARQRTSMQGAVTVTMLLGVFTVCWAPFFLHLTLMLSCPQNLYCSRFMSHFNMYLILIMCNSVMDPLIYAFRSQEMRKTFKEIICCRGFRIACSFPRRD", "experiment": "Radioligand binding, human melanocortin MC5 membranes, FlashPlate, [125I]-NDP-αMSH", "procedure,_shortened": "as §1"}, "Human δ-opioid (DOP)": {"biological_target": "T7, Human δ-opioid (DOP) (Homo sapiens, UniProt P41143)", "T7 construct": "purchased Perkin Elmer Biosignal", "T7 sequence (P41143 whole entry)": "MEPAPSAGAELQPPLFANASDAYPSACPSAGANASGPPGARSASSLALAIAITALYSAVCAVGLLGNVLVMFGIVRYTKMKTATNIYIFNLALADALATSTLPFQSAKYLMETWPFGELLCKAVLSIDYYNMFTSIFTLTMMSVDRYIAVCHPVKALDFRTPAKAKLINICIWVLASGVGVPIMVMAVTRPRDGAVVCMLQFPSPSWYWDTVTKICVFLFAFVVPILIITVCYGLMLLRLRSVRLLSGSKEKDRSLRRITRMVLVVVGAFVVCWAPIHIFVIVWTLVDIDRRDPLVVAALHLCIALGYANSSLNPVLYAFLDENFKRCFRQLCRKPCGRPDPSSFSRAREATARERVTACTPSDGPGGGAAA", "experiment": "Radioligand binding, human δ-opioid (DOP) membranes, FlashPlate, [3H]-Bremazocine", "procedure,_shortened": "as §1"}, "Human Melanocortin (MC3)": {"biological_target": "T8, Human Melanocortin (MC3) (Homo sapiens, UniProt P41968)", "T8 construct": "purchased Perkin Elmer Biosignal", "T8 sequence (P41968 whole entry)": "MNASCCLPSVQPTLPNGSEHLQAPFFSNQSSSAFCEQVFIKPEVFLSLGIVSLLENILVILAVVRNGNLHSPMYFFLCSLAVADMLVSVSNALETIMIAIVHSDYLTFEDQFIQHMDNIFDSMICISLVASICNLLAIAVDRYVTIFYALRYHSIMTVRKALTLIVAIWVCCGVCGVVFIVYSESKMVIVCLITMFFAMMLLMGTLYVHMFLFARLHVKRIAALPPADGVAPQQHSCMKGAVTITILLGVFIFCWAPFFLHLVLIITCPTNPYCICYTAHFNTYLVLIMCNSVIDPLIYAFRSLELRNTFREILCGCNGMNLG", "experiment": "Radioligand binding, human melanocortin MC3 membranes, FlashPlate, [125I]-NDP-αMSH", "procedure,_shortened": "as §1"}, "Human Melanocortin (MC4)": {"biological_target": "T9, Human Melanocortin (MC4) (Homo sapiens, UniProt P32245)", "T9 construct": "purchased Perkin Elmer Biosignal", "T9 sequence (P32245 whole entry)": "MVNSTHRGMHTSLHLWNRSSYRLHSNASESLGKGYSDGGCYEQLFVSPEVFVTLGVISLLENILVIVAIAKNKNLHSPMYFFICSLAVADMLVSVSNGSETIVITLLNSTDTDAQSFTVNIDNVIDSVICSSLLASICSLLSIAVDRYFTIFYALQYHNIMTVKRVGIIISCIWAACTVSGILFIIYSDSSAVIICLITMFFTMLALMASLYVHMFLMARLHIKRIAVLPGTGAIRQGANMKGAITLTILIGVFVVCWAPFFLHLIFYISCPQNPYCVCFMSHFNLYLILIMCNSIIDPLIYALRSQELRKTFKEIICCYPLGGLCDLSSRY", "experiment": "Radioligand binding, human melanocortin MC4 membranes, FlashPlate, [125I]-NDP-αMSH", "procedure,_shortened": "as §1"}, "[2]": {"biological_target": "T10, Human neuropeptide Y (NPY-Y1) (Homo sapiens, UniProt P25929)", "T10 construct": "purchased Perkin Elmer Biosignal", "T10 sequence (P25929 1-384)": "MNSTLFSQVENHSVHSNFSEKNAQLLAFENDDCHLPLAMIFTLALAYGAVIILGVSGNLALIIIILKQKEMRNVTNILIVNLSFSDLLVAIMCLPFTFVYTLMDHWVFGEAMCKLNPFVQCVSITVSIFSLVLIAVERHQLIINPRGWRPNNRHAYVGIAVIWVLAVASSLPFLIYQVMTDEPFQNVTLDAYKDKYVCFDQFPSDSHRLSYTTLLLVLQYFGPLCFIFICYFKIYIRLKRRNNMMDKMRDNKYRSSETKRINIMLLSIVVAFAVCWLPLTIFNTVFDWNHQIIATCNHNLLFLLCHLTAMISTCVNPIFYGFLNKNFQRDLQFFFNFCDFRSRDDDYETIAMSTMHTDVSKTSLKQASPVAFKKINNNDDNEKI", "experiment": "Radioligand binding, human neuropeptide Y NPY-Y1 membranes, FlashPlate, [125I]-PYY", "procedure,_shortened": "as §1"}, "Human opioid (ORL1)": {"biological_target": "T11, Human opioid (ORL1) (Homo sapiens, UniProt P41146)", "T11 construct": "purchased Perkin Elmer Biosignal", "T11 sequence (P41146 whole entry)": "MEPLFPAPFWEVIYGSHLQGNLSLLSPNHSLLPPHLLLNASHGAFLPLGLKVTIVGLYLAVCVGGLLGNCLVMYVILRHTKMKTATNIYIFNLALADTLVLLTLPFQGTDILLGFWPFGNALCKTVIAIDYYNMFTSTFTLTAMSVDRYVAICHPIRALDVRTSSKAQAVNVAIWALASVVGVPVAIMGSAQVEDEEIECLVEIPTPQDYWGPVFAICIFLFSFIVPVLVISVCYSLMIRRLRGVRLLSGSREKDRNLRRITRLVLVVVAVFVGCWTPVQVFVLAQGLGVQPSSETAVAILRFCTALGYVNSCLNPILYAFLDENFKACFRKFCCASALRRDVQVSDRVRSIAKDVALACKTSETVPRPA", "experiment": "Radioligand binding, human opioid ORL1 membranes, FlashPlate, [125I]-Nociceptin", "procedure,_shortened": "as §1"}},
  "data": [
    {"smiles": "N=C(N)NCCC(=O)NC1C(OCc2ccc(-c3ccccc3)cc2)OC(COCc2ccc(Cl)cc2)C(O)C1OCc1ccc2ccccc2c1", "note": "(stereo not drawn) [compound 413]", "values": [
      {"measurement": "A6: inhibition of radioligand binding", "setting": "[1]; [125I]-S36057, human MCH1 membranes", "value": "+ (“+” indicates greater than 50% inhibition at 10 μM)"},
      {"measurement": "A8: inhibition of radioligand binding", "setting": "Human neurokinin (NK1); [125I]-Substance P, human NK1 membranes", "value": "+ (“+” indicates greater than 50% inhibition at 10 μM)"},
      {"measurement": "A2: inhibition of radioligand binding", "setting": "Human κ-Opioid (KOP); [3H]-Diprenorphine, human KOP membranes", "value": "− (“−” indicates less than 50% inhibition at 10 μM)"},
      {"measurement": "A7: inhibition of radioligand binding", "setting": "Human μ-opioid (MOP); [3H]-Naloxone, human MOP membranes", "value": "− (“−” indicates less than 50% inhibition at 10 μM)"},
      {"measurement": "A11: inhibition of radioligand binding", "setting": "Mouse urotensin (mUR2); [125I]-Urotensin II, mouse mUR2 membranes", "value": "− (“−” indicates less than 50% inhibition at 10 μM)"},
      {"measurement": "A5: inhibition of radioligand binding", "setting": "Human melanocortin (MC5); [125I]-NDP-αMSH, human MC5 membranes", "value": "+ (“+” indicates greater than 50% inhibition at 10 μM)"},
      {"measurement": "A1: inhibition of radioligand binding", "setting": "Human δ-opioid (DOP); [3H]-Bremazocine, human DOP membranes", "value": "− (“−” indicates less than 50% inhibition at 10 μM)"},
      {"measurement": "A3: inhibition of radioligand binding", "setting": "Human Melanocortin (MC3); [125I]-NDP-αMSH, human MC3 membranes", "value": "+ (“+” indicates greater than 50% inhibition at 10 μM)"},
      {"measurement": "A4: inhibition of radioligand binding", "setting": "Human Melanocortin (MC4); [125I]-NDP-αMSH, human MC4 membranes", "value": "+ (“+” indicates greater than 50% inhibition at 10 μM)"},
      {"measurement": "A9: inhibition of radioligand binding", "setting": "[2]; [125I]-PYY, human NPY-Y1 membranes", "value": "− (“−” indicates less than 50% inhibition at 10 μM)"},
      {"measurement": "A10: inhibition of radioligand binding", "setting": "Human opioid (ORL1); [125I]-Nociceptin, human ORL1 membranes", "value": "+ (“+” indicates greater than 50% inhibition at 10 μM)"}
    ]},
    {"smiles": "NCCCC(=O)NC1C(OCc2ccc(Cl)cc2)OC(COCc2ccccc2)C(O)C1OCc1ccc(Cl)cc1", "note": "(single isomer, unassigned) [compound 492]", "values": [
      {"measurement": "A6: inhibition of radioligand binding, human melanin-concentrating hormone (MCH1)", "setting": "[1]; [125I]-S36057, 10 µM", "value": "+ (“+” indicates greater than 50% inhibition at 10 μM)"},
      {"measurement": "A8: inhibition of radioligand binding, human neurokinin (NK1)", "setting": "Human neurokinin (NK1); [125I]-Substance P", "value": "+ (“+” indicates greater than 50% inhibition at 10 μM)"},
      {"measurement": "A2: inhibition of radioligand binding, human κ-opioid (KOP)", "setting": "Human κ-Opioid (KOP); [3H]-Diprenorphine", "value": "− (“−” indicates less than 50% inhibition at 10 μM)"},
      {"measurement": "A7: inhibition of radioligand binding, human μ-opioid (MOP)", "setting": "Human μ-opioid (MOP); [3H]-Naloxone", "value": "− (“−” indicates less than 50% inhibition at 10 μM)"},
      {"measurement": "A11: inhibition of radioligand binding, mouse urotensin (mUR2)", "setting": "Mouse urotensin (mUR2); [125I]-Urotensin II", "value": "− (“−” indicates less than 50% inhibition at 10 μM)"},
      {"measurement": "A5: inhibition of radioligand binding, human melanocortin (MC5)", "setting": "Human melanocortin (MC5); [125I]-NDP-αMSH, 10 µM", "value": "+ (“+” indicates greater than 50% inhibition at 10 μM)"},
      {"measurement": "A1: inhibition of radioligand binding, human δ-opioid (DOP)", "setting": "Human δ-opioid (DOP); [3H]-Bremazocine", "value": "− (“−” indicates less than 50% inhibition at 10 μM)"},
      {"measurement": "A3: inhibition of radioligand binding, human melanocortin (MC3)", "setting": "Human Melanocortin (MC3); [125I]-NDP-αMSH", "value": "− (“−” indicates less than 50% inhibition at 10 μM)"},
      {"measurement": "A4: inhibition of radioligand binding, human melanocortin (MC4)", "setting": "Human Melanocortin (MC4); [125I]-NDP-αMSH, 10 µM", "value": "+ (“+” indicates greater than 50% inhibition at 10 μM)"},
      {"measurement": "A9: inhibition of radioligand binding, human neuropeptide Y (NPY-Y1)", "setting": "[2]; [125I]-PYY", "value": "− (“−” indicates less than 50% inhibition at 10 μM)"},
      {"measurement": "A10: inhibition of radioligand binding, human opioid (ORL1)", "setting": "Human opioid (ORL1); [125I]-Nociceptin", "value": "+ (“+” indicates greater than 50% inhibition at 10 μM)"}
    ]},
    {"smiles": "CO[C@H]1[C@H](O)[C@@H](COCc2ccc3ccccc3c2)OC(OCc2ccc(-c3ccccc3)cc2)[C@@H]1NC(=O)CCCNC(=N)N", "note": "(stereo partly drawn) [compound 57]", "values": [
      {"measurement": "A6 radioligand binding inhibition", "setting": "[1]; human MCH1 membranes", "value": "− (“−” indicates less than 50% inhibition at 10 μM)"},
      {"measurement": "A8 radioligand binding inhibition", "setting": "Human neurokinin (NK1); human neurokinin NK1 membranes", "value": "+ (“+” indicates greater than 50% inhibition at 10 μM)"},
      {"measurement": "A2 radioligand binding inhibition", "setting": "Human κ-Opioid (KOP); human κ-opioid (KOP) membranes", "value": "+ (“+” indicates greater than 50% inhibition at 10 μM)"},
      {"measurement": "A7 radioligand binding inhibition", "setting": "Human μ-opioid (MOP); human μ-opioid (MOP) membranes", "value": "+ (“+” indicates greater than 50% inhibition at 10 μM)"},
      {"measurement": "A11 radioligand binding inhibition", "setting": "Mouse urotensin (mUR2); mouse urotensin mUR2 membranes", "value": "− (“−” indicates less than 50% inhibition at 10 μM)"},
      {"measurement": "A5 radioligand binding inhibition", "setting": "Human melanocortin (MC5); human melanocortin MC5 membranes", "value": "+ (“+” indicates greater than 50% inhibition at 10 μM)"},
      {"measurement": "A1 radioligand binding inhibition", "setting": "Human δ-opioid (DOP); human δ-opioid (DOP) membranes", "value": "− (“−” indicates less than 50% inhibition at 10 μM)"},
      {"measurement": "A3 radioligand binding inhibition", "setting": "Human Melanocortin (MC3); human melanocortin MC3 membranes", "value": "+ (“+” indicates greater than 50% inhibition at 10 μM)"},
      {"measurement": "A4 radioligand binding inhibition", "setting": "Human Melanocortin (MC4); human melanocortin MC4 membranes", "value": "+ (“+” indicates greater than 50% inhibition at 10 μM)"},
      {"measurement": "A9 radioligand binding inhibition", "setting": "[2]; human NPY-Y1 membranes", "value": "− (“−” indicates less than 50% inhibition at 10 μM)"},
      {"measurement": "A10 radioligand binding inhibition", "setting": "Human opioid (ORL1); human ORL1 membranes", "value": "+ (“+” indicates greater than 50% inhibition at 10 μM)"}
    ]}
  ]
}
